Assay results reported in patent publication US20240002441A1, “PEPTIDES AND USES THEREOF IN MODULATION OF AMYLOID-BETA PROTEIN DEGRADING PROTEASES” (priority 2020, published 2024).

What was measured:
STZ diabetic mouse model = assay: STZ diabetic mouse model, inflammation and fibrosis (Example 12); format: in vivo; details: 1 mg/kg subcutaneously by minipump, 4 weeks
Protocol: Mice were divided into two groups, all mice were treated with STZ (150 mg/kg) 1 week before starting treatment. Prior to STZ treatment, urine and blood samples were taken and a blood glucose test undertaken. Similarly, before treatment began, one week post STZ administration, urine and blood samples were taken and blood glucose was assessed. The two treatment groups were then treated with either vehicle only or SEQ ID NO: 2 (1 mg/kg) subcutaneously by minipump. The mice were then monitored for 4 weeks before sacrifice. Monitoring included assessing the weight of each animal every day, and taking urine and blood samples and measuring blood glucose at 2 weeks post treatment and immediately before sacrifice.

EA.hy926 cells = assay: Peptide stability study in EA.hy926 endothelial cells, LCMS (Example 4); format: in vitro ADME; details: peptide 9 μM, Opti-MEM
Protocol: SEQ ID NO:2 was prepared as a C-terminal amidated analogue of SEQ ID NO:1. The stability of SEQ ID NO:1 and SEQ ID NO:2 was assessed in HEK293 and EA.hy926 cells grown in culture and their break down was monitored by LCMS over 60 min using the following procedure.
HEK293 (passage 24) or Ea.hy926 (passage 37) were seeded into tissue-culture-grade 96-well plates at a density of 20,000 cells/well. After 24 hr, cells were washed with PBS and replaced with Opti-MEM reduced serum media containing SEQ ID NO:1 or SEQ ID NO:2 (9 μM). Aliquots of equal volume were taken at T=0 and 60 min. SEQ ID NO:2 was added to control wells having media (no cells) only. Samples were immediately acidified in 0.1% TFA, snap frozen in dry ice and stored in −80° C. until analysed by LCMS.
Samples were analyzed by LC-MS/MS on a Shimadzu Nexera uHPLC (Japan) coupled to a Triple Tof 5600 mass spectrometer (ABSCIEX, Canada) equipped with a duo electrospray ion source. One μL of each extract was injected onto a 2.1 mm×100 mm Zorbax C18 1.8 um column (Agilent) at 200 μL/min. […] SEQ ID NO:1 and SEQ ID NO:2 were quantified using the […] doubly charged molecular ion from m/z 510.270 to 510.325. The data was acquired using Analyst TF 1.6 and quantification was carried out using MultiQuant 2.1.1 software (ABSCIEX, Canada).

ECE2 = biological target: T1, ECE2 (Homo sapiens, UniProt P0DPD6); assay: QFS assay of Aβ-degrading enzymes: ECE2 (Example 6); format: biochemical
T1 construct: purchased R & D systems 1645-ZN-010
T1 sequence (P0DPD6 1-811): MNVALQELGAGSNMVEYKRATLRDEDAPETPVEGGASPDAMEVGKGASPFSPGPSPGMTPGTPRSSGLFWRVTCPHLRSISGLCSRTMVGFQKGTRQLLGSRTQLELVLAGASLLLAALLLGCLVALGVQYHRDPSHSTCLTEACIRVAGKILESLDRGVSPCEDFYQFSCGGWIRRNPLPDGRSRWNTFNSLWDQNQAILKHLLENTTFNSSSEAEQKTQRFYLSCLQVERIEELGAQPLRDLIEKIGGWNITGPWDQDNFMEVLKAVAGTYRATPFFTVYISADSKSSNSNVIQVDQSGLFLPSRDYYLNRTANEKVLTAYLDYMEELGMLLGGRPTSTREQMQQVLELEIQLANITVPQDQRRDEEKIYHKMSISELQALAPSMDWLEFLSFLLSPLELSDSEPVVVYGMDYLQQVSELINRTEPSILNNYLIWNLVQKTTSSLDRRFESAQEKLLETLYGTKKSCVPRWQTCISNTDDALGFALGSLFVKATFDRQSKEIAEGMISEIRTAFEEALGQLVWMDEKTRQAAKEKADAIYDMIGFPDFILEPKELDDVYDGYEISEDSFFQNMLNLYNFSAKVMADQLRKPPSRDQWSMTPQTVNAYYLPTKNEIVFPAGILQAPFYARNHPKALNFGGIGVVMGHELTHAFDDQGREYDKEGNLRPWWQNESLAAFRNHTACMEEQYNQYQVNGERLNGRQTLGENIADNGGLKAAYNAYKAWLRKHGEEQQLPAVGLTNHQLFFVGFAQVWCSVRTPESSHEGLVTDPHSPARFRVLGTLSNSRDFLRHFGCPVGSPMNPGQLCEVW
Protocol: Plate reader-based enzyme assays were performed using a quenched fluorescent substrate (QFS) in a 96-well format using a SpectraMAX M4 Microplate reader (Molecular Devices). The increase in fluorescence following addition of QFS (40 μM) was taken as evidence of enzyme activity. Fluorescence was monitored over 2 h at 37° C. using κEx=320 nm and λEm=405 nm. Assays were conducted in black 96-well plates. Specific enzyme activity was expressed as a rate of substrate cleavage calculated using a standard curve of 7-methoxy-coumarin-4-acetic acid.
In all plate reader-based enzyme assays using QFS, the reaction rate (μmol of substrate cleaved/min) was calculated using linear regression analysis (GraphPad Prism software version 8.01). The reaction rates calculated were used to generate the enzyme kinetic parameters Vmax and Km through non-linear regression analysis (GraphPad Prism software, version 8.01; Michaelis-Menten equation). Where indicated, enzyme activity in the presence of peptide was expressed as a % of the enzyme alone. Data were expressed as mean±SEM and statistical significance was determined using t-tests or one-way ANOVAs followed by Tukey's post-hoc test. P<0.05 was considered as statistically significant. […]
SEQ ID NO:2 was assessed in a QFS assay against enzymes NEP, ECE1, ECE2, ACE1, ACE2, IDE and MMP-2 using the method in Example 2 and the following procedure. […]

Substance: H-SLFELGKMIL-NH2 [SEQ ID NO:2, H2N-SLFELGKMIL-NH2]
- blood glucose compared with vehicle treated mice (STZ diabetic mouse model): lower
- kidney IL-6 expression compared with vehicle treated mice (STZ diabetic mouse model): lower
- kidney collagen I expression compared with vehicle treated mice (STZ diabetic mouse model): lower
- kidney collagen III expression compared with vehicle treated mice (STZ diabetic mouse model): lower
- relative amount remaining in the medium of endothelial cells at 60 min (EA.hy926 cells): 26%±5%
- ECE2 activity compared with respective enzyme alone (ECE2; peptide 2 μM (FIG. 2c)): did not increase
- ECE2 activity, concentration dependence (ECE2; peptide 0.9-26 μM): did not affect
